What was measured:
Format in all cases: cell-based, human
[1] = system: HCT-15 (colorectal cancer); assay: Crystal Violet viability assay, HCT-15; set-up: key to CVE Average: absorbance at 570 nm (second wavelength subtracted); settings: for CVE Average 24 h / CVE Average 48 h / CVE Average 72 h: HCT-15, Run 1
Description: (§1) The Sulforhodamine B and Crystal Violet assays provide information about protein and were used to complement the Methyl-Tetrazolium dye assay. […] It is used for the quantification of cellular proteins of cultured cells. The assay using Crystal Violet, a dye that binds electrostatically to proteins and stains DNA, provides a reliable, simple assay for measuring viability of cells.
(§2) The Methyl Tetrazolium, Sulforhodamine B, and Crystal Violet assays were used to assess cell viabilities. The incubation times were 24 hours, 48 hours, and 72 hours. The Nerium oleander extract Anvirzel™ (a hot water extract of oleander obtained from Salud Integral, Honduras) was tested in concentrations ranging from 0.01 ng/mL to 10 ng/mL.
(§3) Cells were detached by trypsinization (Trypsin-0.25% EDTA, Invitrogen, 25200-072) during the logarithmic phase of culture growth and plated in 96-well plates (18.000 cells/well) (Corning, Costar 359) in a final volume of 200 μl of medium per well. […] The absorbance was measured after 24 hours, 48 hours, and 72 hours of incubation.
(§4) For the Crystal Violet assay, the medium was removed from the 96-well plates, the plates rinsed with PBS (Sigma, P3813) and then the cells were […] by the addition of 10% formalin (MERCK, 1.04003.2500) for 20 minutes at RT. Formalin was removed and 0.25% aqueous crystal violet (Sigma, HT901), dissolved in water, was added for 10 minutes at RT. Unbound Crystal Violet was rinsed by washing with water and finally 33% acetic acid was added to dissolve the dye.
(§5) The optical density of each plate was measured on a μQuant spectrophotometer and the data were analyzed with Gen5 software (μQuant Biomolecular Spectrophotometer MQX200 and Gen5™ Microplate Data Collection & Analysis software, BioTek® Instruments. Inc, April 2008). Absorbance was measured at 570 nm for all assays and a second wavelength was measured in order to subtract noise. For the Methyl-Tetrazolium assay this second wavelength was 630 nm and for the Sulforhodamine B and Crystal Violet assays it was 690 nm.

[2] = system: A375 melanoma cancer cell line; assay: Crystal Violet viability assay, A375; settings: for ABSORBANCE: 0.1 μg/mL cisplatin; for Average absorbance, CVE 24 h / Average absorbance, CVE 48 h / Average absorbance, CVE 72 h: A375 Run 1
Description: (§6) Three different viability assays were chosen to complement each other and yielded results dependent on concentration and cell line: the Methyl Tetrazolium dye assay, the Sulforhodamine B fluorescent dye assay, and the Crystal Violet dye assay.
as §1, §2, §3, §4, §5

HT55 (colorectal cancer) = assay: Crystal Violet viability assay, HT55; set-up: key: absorbance at 570 nm (crystal violet), background wavelength subtracted
Description: as §6, §1, §2, §3, §4, §5

## N.N.[Cl][Pt][Cl] [cisplatin]
[1]; 0.1 μg/ml CDDP
  CVE Average 24 h: 0.787
  CVE Average 48 h: 0.99
  CVE Average 72 h: 2.312
[1]; 1 μg/ml CDDP
  CVE Average 24 h: 0.451
  CVE Average 48 h: 0.187
  CVE Average 72 h: 0.425
[1]; 10 μg/ml CDDP
  CVE Average 24 h: 0.59
  CVE Average 48 h: 0.277
  CVE Average 72 h: 0.282
[1]; 100 μg/ml CDDP
  CVE Average 24 h: 0.456
  CVE Average 48 h: 0.214
  CVE Average 72 h: 0.231
[1]; Run 2, 24 h, 0.1 μg/ml CDDP
  CVE Average: 0.766
[1]; Run 2, 24 h, 1 μg/ml CDDP
  CVE Average: 0.387
[1]; Run 2, 24 h, 10 μg/ml CDDP
  CVE Average: 0.824
[1]; Run 2, 24 h, 100 μg/ml CDDP
  CVE Average: 0.41
[1]; Run 2, 48 h, 0.1 μg/ml CDDP
  CVE Average: 1.542
[1]; Run 2, 48 h, 1 μg/ml CDDP
  CVE Average: 0.533
[1]; Run 2, 48 h, 10 μg/ml CDDP
  CVE Average: 0.742
[1]; Run 2, 48 h, 100 μg/ml CDDP
  CVE Average: 0.378
[1]; Run 2, 72 h, 0.1 μg/ml CDDP
  CVE Average: 2.449
[1]; Run 2, 72 h, 1 μg/ml CDDP
  CVE Average: 0.533
[1]; Run 2, 72 h, 10 μg/ml CDDP
  CVE Average: 0.46
[1]; Run 2, 72 h, 100 μg/ml CDDP
  CVE Average: 0.327
[1]; Run 3, 24 h, 0.1 μg/ml CDDP
  CVE Average: 2.043
[1]; Run 3, 24 h, 1 μg/ml CDDP
  CVE Average: 0.459
[1]; Run 3, 24 h, 10 μg/ml CDDP
  CVE Average: 1.477
[1]; Run 3, 24 h, 100 μg/ml CDDP
  CVE Average: 0.473
[1]; Run 3, 48 h, 0.1 μg/ml CDDP
  CVE Average: 1.335
[1]; Run 3, 48 h, 10 μg/ml CDDP
  CVE Average: 0.363
[1]; Run 3, 48 h, 100 μg/ml CDDP
  CVE Average: 0.114
[1]; Run 3, 72 h, 0.1 μg/ml CDDP
  CVE Average: 2.814
[1]; Run 3, 72 h, 1 μg/ml CDDP
  CVE Average: 0.623
[1]; Run 3, 72 h, 10 μg/ml CDDP
  CVE Average: 0.669
[1]; Run 3, 72 h, 100 μg/ml CDDP
  CVE Average: 0.499
[2]; A375, 48 h
  ABSORBANCE: 1.304
[2]; A375, 72 h
  ABSORBANCE: 0.663
[2]; 0.1 μg/ml CDDP
  Average absorbance, CVE 24 h: 0.607
  Average absorbance, CVE 48 h: 1.304
  Average absorbance, CVE 72 h: 0.663
[2]; 1 μg/ml CDDP
  Average absorbance, CVE 24 h: 0.277
  Average absorbance, CVE 48 h: 0.396
  Average absorbance, CVE 72 h: 0.178
[2]; 10 μg/ml CDDP
  Average absorbance, CVE 24 h: 0.32
  Average absorbance, CVE 48 h: 0.405
  Average absorbance, CVE 72 h: 0.282
[2]; 100 μg/ml CDDP
  Average absorbance, CVE 24 h: 0.329
  Average absorbance, CVE 48 h: 0.288
  Average absorbance, CVE 72 h: 0.311
[2]; A375 Run 2, 24 h, 0.1 μg/ml CDDP
  Average absorbance CVE: 0.603
[2]; A375 Run 2, 24 h, 1 μg/ml CDDP
  Average absorbance CVE: 0.197
[2]; A375 Run 2, 24 h, 10 μg/ml CDDP
  Average absorbance CVE: 0.246
[2]; A375 Run 2, 24 h, 100 μg/ml CDDP
  Average absorbance CVE: 0.241
[2]; A375 Run 2, 48 h, 0.1 μg/ml CDDP
  Average absorbance CVE: 1.204
[2]; A375 Run 2, 48 h, 1 μg/ml CDDP
  Average absorbance CVE: 0.605
[2]; A375 Run 2, 48 h, 10 μg/ml CDDP
  Average absorbance CVE: 0.514
[2]; A375 Run 2, 48 h, 100 μg/ml CDDP
  Average absorbance CVE: 0.238
[2]; A375 Run 2, 72 h, 0.1 μg/ml CDDP
  Average absorbance CVE: 1.312
[2]; A375 Run 2, 72 h, 1 μg/ml CDDP
  Average absorbance CVE: 1.001
[2]; A375 Run 2, 72 h, 10 μg/ml CDDP
  Average absorbance CVE: 0.729
[2]; A375 Run 2, 72 h, 100 μg/ml CDDP
  Average absorbance CVE: 0.293
[2]; A375 Run 3, 24 h, 0.1 μg/ml CDDP
  Average absorbance CVE: 0.856
[2]; A375 Run 3, 24 h, 1 μg/ml CDDP
  Average absorbance CVE: 0.655
[2]; A375 Run 3, 24 h, 10 μg/ml CDDP
  Average absorbance CVE: 0.529
[2]; A375 Run 3, 24 h, 100 μg/ml CDDP
  Average absorbance CVE: 0.224
[2]; A375 Run 3, 48 h, 0.1 μg/ml CDDP
  Average absorbance CVE: 0.92
[2]; A375 Run 3, 48 h, 1 μg/ml CDDP
  Average absorbance CVE: 0.375
[2]; A375 Run 3, 48 h, 10 μg/ml CDDP
  Average absorbance CVE: 0.309
[2]; A375 Run 3, 48 h, 100 μg/ml CDDP
  Average absorbance CVE: 0.252
[2]; A375 Run 3, 72 h, 0.1 μg/ml CDDP
  Average absorbance CVE: 0.961
[2]; A375 Run 3, 72 h, 1 μg/ml CDDP
  Average absorbance CVE: 0.388
[2]; A375 Run 3, 72 h, 10 μg/ml CDDP
  Average absorbance CVE: 0.344
[2]; A375 Run 3, 72 h, 100 μg/ml CDDP
  Average absorbance CVE: 0.24
HT55 (colorectal cancer); HT55, Run 1, 24 h, 0.1 μg/ml CDDP
  CVE Average: 0.838
HT55 (colorectal cancer); HT55, Run 1, 24 h, 1 μg/ml CDDP
  CVE Average: 0.557
HT55 (colorectal cancer); HT55, Run 1, 24 h, 10 μg/ml CDDP
  CVE Average: 0.728
HT55 (colorectal cancer); HT55, Run 1, 24 h, 100 μg/ml CDDP
  CVE Average: 0.383
HT55 (colorectal cancer); HT55, Run 1, 48 h, 0.1 μg/ml CDDP
  CVE Average: 0.588
HT55 (colorectal cancer); HT55, Run 1, 48 h, 1 μg/ml CDDP
  CVE Average: 0.314
HT55 (colorectal cancer); HT55, Run 1, 48 h, 10 μg/ml CDDP
  CVE Average: 0.405
HT55 (colorectal cancer); HT55, Run 1, 48 h, 100 μg/ml CDDP
  CVE Average: 0.269
HT55 (colorectal cancer); HT55, Run 1, 72 h, 0.1 μg/ml CDDP
  CVE Average: 0.901
HT55 (colorectal cancer); HT55, Run 1, 72 h, 1 μg/ml CDDP
  CVE Average: 0.437
HT55 (colorectal cancer); HT55, Run 1, 72 h, 10 μg/ml CDDP
  CVE Average: 0.436
HT55 (colorectal cancer); HT55, Run 1, 72 h, 100 μg/ml CDDP
  CVE Average: 0.243
HT55 (colorectal cancer); HT55 Run 2, 24 h, 0.1 μg/ml CDDP
  CVE Average: 1.745
HT55 (colorectal cancer); HT55 Run 2, 24 h, 1 μg/ml CDDP
  CVE Average: 0.942
HT55 (colorectal cancer); HT55 Run 2, 24 h, 10 μg/ml CDDP
  CVE Average: 1.075
HT55 (colorectal cancer); HT55 Run 2, 24 h, 100 μg/ml CDDP
  CVE Average: 0.758
HT55 (colorectal cancer); HT55 Run 2, 48 h, 0.1 μg/ml CDDP
  CVE Average: 0.793
HT55 (colorectal cancer); HT55 Run 2, 48 h, 1 μg/ml CDDP
  CVE Average: 0.23
HT55 (colorectal cancer); HT55 Run 2, 48 h, 10 μg/ml CDDP
  CVE Average: 0.281
HT55 (colorectal cancer); HT55 Run 2, 48 h, 100 μg/ml CDDP
  CVE Average: 0.286
HT55 (colorectal cancer); HT55 Run 2, 72 h, 0.1 μg/ml CDDP
  CVE Average: 0.937
HT55 (colorectal cancer); HT55 Run 2, 72 h, 1 μg/ml CDDP
  CVE Average: 0.395
HT55 (colorectal cancer); HT55 Run 2, 72 h, 10 μg/ml CDDP
  CVE Average: 0.326
HT55 (colorectal cancer); HT55 Run 2, 72 h, 100 μg/ml CDDP
  CVE Average: 0.244
HT55 (colorectal cancer); HT55 Run 3, 24 h, 0.1 μg/ml CDDP
  CVE Average: 0.591
HT55 (colorectal cancer); HT55 Run 3, 24 h, 1 μg/ml CDDP
  CVE Average: 0.201
HT55 (colorectal cancer); HT55 Run 3, 24 h, 10 μg/ml CDDP
  CVE Average: 0.812
HT55 (colorectal cancer); HT55 Run 3, 24 h, 100 μg/ml CDDP
  CVE Average: 0.15
HT55 (colorectal cancer); HT55 Run 3, 48 h, 0.1 μg/ml CDDP
  CVE Average: 1.099
HT55 (colorectal cancer); HT55 Run 3, 48 h, 1 μg/ml CDDP
  CVE Average: 0.561
HT55 (colorectal cancer); HT55 Run 3, 48 h, 10 μg/ml CDDP
  CVE Average: 1.712
HT55 (colorectal cancer); HT55 Run 3, 48 h, 100 μg/ml CDDP
  CVE Average: 0.285
HT55 (colorectal cancer); HT55 Run 3, 72 h, 0.1 μg/ml CDDP
  CVE Average: 1.228
HT55 (colorectal cancer); HT55 Run 3, 72 h, 1 μg/ml CDDP
  CVE Average: 0.577
HT55 (colorectal cancer); HT55 Run 3, 72 h, 10 μg/ml CDDP
  CVE Average: 2.329
HT55 (colorectal cancer); HT55 Run 3, 72 h, 100 μg/ml CDDP
  CVE Average: 0.431

Source: patent publication US20190343908A1, “Therapeutic Combination for the Treatment of Cancer” (Nerium Biotechnology Inc., priority 2011, published 2019)
